Results published in patent publication US20140038953A1, “COMPOSITIONS AND METHODS FOR CARDIOVASCULAR DISEASE” (THE GENERAL HOSPITAL CORPORATION, priority 2011, published 2014).
Entries after “also recorded” stand apart in the source; their conditions may differ. Marks after values point to notes of the source that are not given here.

Key:
Type in all cases: in vivo
LDLR−/− mice [1] = assay: Blood biochemical analysis in LDLR−/− mice on high fat diet
Procedure: Female mice deficient for the low density lipoprotein receptor (LDLR^−/−) on a C57BL/6 background with appropriate control mice mice (eight weeks of age) were obtained from Jackson Laboratories (Bar Harbor, Me.). Animals were fed a western style diet formulated to match Paigen's Atherogenic Rodent Diet (42% fat, 0.15% cholesterol, 19.5% casein; Research Diets Inc., New Brunswick, N.J.).
[…], white blood count, hematocrit, hemoglobin, and platelets were analyzed using a HemaTrue™ Hematology Analyzer (Heska AG, Switzerland). Urea nitrogen, glucose, alkaline phosphatase, total protein, alanine transaminase and creatinine were determined using a Spotchem EZ SP-4430 POCT analyzer (Arkray, Inc., Kyoto, Japan). HDL and LDL levels were determined using a fluorescence quantification kit (K613-100, Biovision, Mountain View, Calif.)

LDLR−/− mice [2] = assay: Vascular inflammation / macrophage activity in LDLR−/− mice (Prosense, MAC2); conditions: for vascular inflammation / macrophage activity (Prosense): high fat diet 20 weeks, 2.5 mg/kg ip daily, vs vehicle, 2.5 mg/kg
Procedure: Fluorescence reflectance imaging (FRI), was performed as previously described. […] After dissection, aortae were subjected to ex vivo near infrared fluorescence reflectance imaging using an Odyssey Imaging System (LI-COR Biotechnology, Lincoln, Nebr.), with integrated signal intensities determined for regions of interest using software version 3.0.16.
For immunofluorescence, frozen sections were post-fixed in cold methanol and incubated with polyclonal antibodies specific for p-SMAD1/5/8 (1:100, Cell Signaling, Danvers, Mass.) or MAC2 (1:100, Cedarlane, Burlington, ON) followed by FITC labeled Goat Anti-Rabbit IgG or Rhodamine Goat Anti-Rat IgG (both Jackson Immuno Research, West Grove, Pa.), respectively.
Mice were injected with Osteosense (to label sites of bone-forming activity via osteoblast binding of this probe) and Prosense (to label sites of macrophage-mediated inflammation). Aortae were explanted and subjected to fluorescence reflectance imaging (LICOR Odyssey imager).
Inflammatory activity, a surrogate of atherosclerotic plaque burden, was assessed by near-IR fluorescence of Prosense (fluor-cathepsin substrate) at […]. Ten individual mice were used in each treatment group.
Inflammatory activity, a surrogate of atherosclerotic plaque burden, was assessed by integrated intensity of near-IR fluorescence of Prosense (fluor-cathepsin substrate) at […].
Each treatment group consisted of a total of 10 mice. After 4 weeks of atherogenic diet and drug or vehicle treatment, the animals were sacrificed. The frontal plane sections of the aortic arch were dissected out and stained for macrophage marker (MAC2) and counterstained with DAPI.

LDLR−/− mice [3] = assay: Atheroma burden / lesion formation in LDLR−/− mice (Oil Red O, histology); conditions: for lipid accumulation / atheroma burden (Oil Red O): high fat diet 20 weeks, 2.5 mg/kg ip daily, vs vehicle, 2.5 mg/kg
Procedure: Aortas were either immediately embedded and cryopreserved using optimal cutting-temperature medium (Sakura Tissue-Tek, Zoeterwoude, The Netherlands) or fixed in paraformaldehyde and embedded in parafin. The presence of calcification was determined by staining tissue sections with Alizarin red or Von Kossa. Lipid accumulation in tissue sections was visualized by staining with Oil Red O. Liver sections were prepared from paraformaldehyde-fixed tissue and stained with hematoxylin and eosin.
To confirm that BMP signaling has a direct impact on atherogenesis, the aortae explanted from the BMP inhibitor positive control compound-treated and vehicle-treated LDLr−/− mice after 20 weeks were subjected to Oil Red 0 staining to mark lipid-rich plaques.
LDLr−/− mice were started on a hypercholesterolemic diet at 8 weeks, and treated with either vehicle (saline) or a BMP inhibitor positive control compound (compound 13, 2.5 mg/kg/d intraperitoneally) for an additional 8 weeks. Aortae were harvested and fixed, and then stained with antibodies sensitive for the BMP effector molecule, phosphorylated-SMAD1/5/8, and counterstained with DAPI nuclear stain. Within 6-8 weeks of being subjected to a high fat diet, LDR−/− mice developed fatty lesions in the intima of the aortic root, based on traditional histochemical staining techniques (data not shown). […] Thus, the cellular components of lipid rich plaques, predominantly macrophage-derived foam cells, had evidence of intense activation of the BMP signaling pathway. In contrast, the lipid plaques found in the BMP inhibitor positive control compound-treated mice, which were diminished in size and extent as compared to those in vehicle-treated mice, had also diminished intensity of staining for the phosphorylated form of SMAD1/5/8 (data not shown). Thus, hypercholesterolemic mice had evidence of intense BMP signaling pathway activation in the cellular components of atheromatous lesions, and treatment of hypercholesterolemic mice with the BMP inhibitor positive control compound diminished the activation of the BMP signaling pathway in these lesions.
(§1) LDLR−/− deficient mice were intiated on an atherogenic diet (Paigen) at 8 weeks of age, and administered either vehicle, a BMP inhibitor positive control compound (compound 13, 2.5 mg/kg IP daily) or ALK3-Fc (2 mg/kg IP every other day). Each treatment group consisted of a total of 10 mice. After 4 weeks of atherogenic diet and drug or vehicle treatment, the animals were sacrificed. The frontal plane sections of the aortic arch were dissected out and stained for macrophage marker (MAC2) and counterstained with DAPI.
as §1, with “initiated” for “intiated”, “([…]” for “(2”, “day).” for “day). Each treatment group consisted of a total of 10 mice.”, “6” for “4”, “and” for “and drug or vehicle”, “phosphorylated SMAD1/5/8” for “macrophage marker (MAC2)”

[4] = LDLR−/− mice, HFD 20 weeks, in words
[5] = female LDLR−/− mice, high fat diet 6 weeks, compound 13 2.5 mg/kg ip daily, ALK3-Fc 2 mg/kg ip every other day, mean ± SEM
[6] = female LDLR−/− mice, high fat diet 20 weeks, 2.5 mg/kg ip daily, mean ± SEM
[7] = high fat diet and treatment 6 weeks, compound 13 2.5 mg/kg ip daily, ALK3-Fc 2 mg/kg ip every other day

## c1ccc2c(-c3cnn4cc(-c5ccc(N6CCNCC6)cc5)cnc34)ccnc2c1 [Compound 13, 4-[6-(4-piperazin-1-ylphenyl)pyrazolo[1,5-a]pyrimidin-3-yl]quinoline]
LDLR−/− mice [1]; LDLR−/− mice on HFD, in words
  serum alanine transaminase (ALT) levels vs vehicle: reduced
  serum alkaline phosphatase (ALP) levels vs vehicle: reduced
LDLR−/− mice [1]; [4]
  HDL cholesterol levels vs vehicle: not altered
  serum LDL cholesterol levels vs vehicle: lower serum LDL cholesterol levels
  total cholesterol levels vs vehicle: reduced total cholesterol levels
LDLR−/− mice [1]; LDLR−/− mice, HFD 20 weeks, in words, listed as compound 13
  serum LDL cholesterol levels vs vehicle: reduced total cholesterol levels and LDL levels
LDLR−/− mice [1]; [5]
  Alanine transaminase: 233 ± 56 IU/L
  Alkaline phosphatase: 112 ± 20 IU/L
  Blood urea nitrogen: 24 ± 2 mg/dL
  Cholesterol: 1553 ± 77*^,§ mg/dl
  Creatinine: 0.5 ± 0.1 mg/dL
  Glucose: 259 ± 20 mg/dL
  Hemoglobin: 12.9 ± 1.5 g/dL
  Total protein: 5.1 ± 0.1 g/dL
  Triglycerides: 112 ± 15 mg/dL
LDLR−/− mice [1]; [6]
  Alanine transaminase: 130 ± 21‘ IU/L
  Alkaline phosphatase: 84 ± 11 IU/L
  Blood urea nitrogen: 25 ± 2 mg/dL
  Cholesterol: 1401 ± 87 mg/dL
  Creatinine: 0.4 ± 0.0 mg/dL
  Glucose: 230 ± 19 mg/dL
  HDL: 73.8 ± 26.5 mg/dL
  Hemoglobin: 12.9 ± 0.8 g/dL
  LDL: 1166.3 ± 257.3 mg/dL
  Total protein: 4.3 ± 0.4 g/dL
  Triglycerides: 135 ± 16 mg/dL
LDLR−/− mice [2]; atherogenic diet and treatment 4 weeks, compound 13 2.5 mg/kg IP daily, ALK3-Fc 2 mg/kg IP every other day
  MAC2 staining of aortic arch: decreased staining for MAC2
LDLR−/− mice [2]
  vascular inflammation / macrophage activity (Prosense): marked reduction in vascular inflammation; also recorded: severely diminished evidence of macrophage activity
LDLR−/− mice [2]; listed as BMP inhibitor positive control compound
  vascular inflammation / macrophage activity (Prosense): can reduce vascular calcification and vascular inflammation
LDLR−/− mice [2]; [7]
  foam cell accumulation / macrophage burden (MAC2): inhibited foam cell accumulation
  macrophage / cathepsin activity in aorta (Prosense): as did treatment with compound 13; also recorded: significantly reduced; also recorded: significantly inhibited
LDLR−/− mice [3]; LDLR−/− mice, atherogenic diet and treatment 4 weeks, compound 13 2.5 mg/kg IP daily, ALK3-Fc 2 mg/kg IP every other day
  lesion formation in aortic arch: decreased lesion formation overall
LDLR−/− mice [3]; LDLR−/− mice, atherogenic diet and treatment 6 weeks
  lesion formation / atherogenesis: decreased lesion formation overall
LDLR−/− mice [3]; LDLR−/− mice
  lipid accumulation / atheroma burden (Oil Red O): Atheroma burden was reduced; also recorded: marked reduction
LDLR−/− mice [3]; LDLR−/− mice, listed as BMP inhibitor positive control compound
  lipid accumulation / atheroma burden (Oil Red O): consistently more severe in vehicle-treated
LDLR−/− mice [3]; LDLr−/− mice, hypercholesterolemic diet and treatment 8 weeks, 2.5 mg/kg/d ip
  intimal atheroma formation: reduced intimal atheroma formation
